According to patent US8278290B2, “Tubulin polymerisation inhibitors” (Biononics Limited, priority 2005, dated 2012):
“And” between values parts separate entries of the source, which are not always exact repeats. Equal values may be shown once.

Assays:
MCF-7, cancer cell line = experiment: MCF-7 growth inhibition (SRB or Sysmex cell counting); assay type: cell-based; conditions: SRB or CC assay
[1] = test system: Human umbilical vein endothelial cells; experiment: Proliferation Assay - activated endothelium (MTT); assay type: cell-based; conditions: HUVEC, range within which the IC50 value falls, 48 hrs culture, read-out: Inhib activated HUVECs IC50
Experimental: Proliferation Assay—activated endothelium: Human umbilical vein endothelial cells (CC-2519, Clonetics) were plated at 2500 cells/well in EGM2 (CC-3162, Clonetics) in a 96 well plate in triplicate. Cells were cultured overnight at 37° C. 5% CO2. Medium was subsequently replaced with fresh medium including the compound or negative control. Cells were cultured for a period of 48 hrs. An MTT assay was performed to measure changes in cell numbers. Briefly, 20 μl of MTT reagent was added to cells containing 100 μl of EGM2 and incubated at 37° C. for 2 hours. Absorbance was measured at 492 nm.

[2] = Homo sapiens, MCF7, concentration required to inhibit net cell growth by 50%
[3] = concentration required to inhibit net cell growth by 50%

| IC50 (MCF-7, cancer cell line; [2]) [nM] | IC50 (MCF-7, cancer cell line; [3]) | Compound | IC50 [1] [nM] |
| --- | --- | --- | --- |
| 100 to 1000 | – | COc1ccc2c(/C(=N/O)c3cc(OC)c(OC)c(OC)c3)c(-c3cnn(C)c3)oc2c1 [Entry 55, (E/Z)-6-methoxy-2-(1-methyl-1H-pyrazol-4-yl)-3-(3,4,5-trimethoxybenzoyl)benzo[b]furan oxime] | 100 to 1000 |
| 25 | 29 nM | COc1cc(C(=O)c2c(-c3cnn(C)c3)oc3c(O)c(OC)ccc23)cc(OC)c1O [Entry 22] | – |
| 3.3 | 4.4 nM | COc1cc(OC)cc(C(=O)c2c(-c3cnn(C)c3)oc3c(O)c(OC)ccc23)c1 [Entry 24, 2-(4-N-methylpyrazolyl)-3-(3,5-dimethoxybenzoyl)-6-methoxy-7-hydroxy-benzofuran] | 1 to 10 |
| 62 | 31 nM | COc1cc(C(=O)c2coc3c(O)c(OC)ccc23)cc(OC)c1OC [Entry 7, reference compound] | 10 to 100 |
| 3.6 | 4 nM | COc1ccc2c(C(=O)c3cc(OC)c(OC)c(OC)c3)c(-c3cn[nH]c3)oc2c1 [Entry 32, 6-Methoxy-2-(1H-pyrazol-4-yl)-3-(3,4,5-trimethoxybenzoyl)benzo[b]furan] | 1 to 10 |
| 4.5 | 5.7 nM | COc1ccc2c(C(=O)c3cc(OC)c(OC)c(OC)c3)c(-c3c[nH]cn3)oc2c1 [Entry 45, [2-(1H-Imidazol-4-yl)-6-methoxy-benzofuran-3-yl]-(3,4,5-trimethoxyphenyl)-methanone] | 1 to 10 |
| – | 1.4 nM and 2.2 nM | 2-Imidazol-1-yl-7-O-bis-(triethylammonium)phosphate-6-methoxy-3-(3,4,5-trimethoxybenzoyl)-benzo[b]furan [Entry 49] | – |
| 900 | 540 nM | COc1ccc2c(C(=O)c3cc(OC)c(OC)c(OC)c3)c(-c3cnn(CC(=O)O)c3)oc2c1 [Entry 29, Sodium {4-[6-Methoxy-3-(3,4,5-trimethoxy-benzoyl)-benzo[b]furan-2-yl]-pyrazol-1-yl}-acetate] | 100 |
| 33 | 40 nM | COc1cc(C(=O)c2c(-c3cnn(C)c3)oc3c([N+](=O)[O-])c(OC)ccc23)cc(OC)c1OC [Entry 20, [6-Methoxy-7-nitro-2-(1-methyl-1H-pyrazol-4-yl)-benzofuran-3-yl]-(3,4,5-trimethoxyphenyl)-methanone] | 10 to 100 |
| 110 | 83 nM | COc1ccc2c(C(=O)c3cc(OC)c(OC)c(OC)c3)c(-c3cnn(Cc4ccccc4)c3)oc2c1 [Entry 17, [2-(1-Benzyl-1H-pyrazol-4-yl)-6-methoxy-benzofuran-3-yl]-(3,4,5-trimethoxyphenyl)-methanone] | 100 to 1000 |
| 40 | 35 nM | COc1ccc2c(C(=O)c3cc(OC)c(OC)c(OC)c3)c(-c3cn(C)cn3)oc2c1 [Entry 39, [2-(1-methyl-1H-Imidazol-4-yl)-6-methoxy-benzofuran-3-yl]-(3,4,5-trimethoxyphenyl)-methanone] | 10 to 100 |
| 200 | 230 nM | COc1ccc2c(C(=O)c3cc(OC)c(OC)c(OC)c3)c(N3CCN(C)CC3)oc2c1 [Entry 46, 2-(4-N-Methylpiperazino)-3-(3,4,5-trimethoxybenzoyl)-6-methoxy-benzo[b]furan] | 100 to 1000 |
| 68 | 57 nM | COc1cc(C(=O)c2c(-c3c(C)noc3C)oc3c(O)c(OC)ccc23)cc(OC)c1OC [Entry 25, 2-(3,5-dimethylisoxazol-4-yl)-7-hydroxy-3-(3,4,5-trimethoxy-benzoyl)-6-methoxybenzo[b]furan] | 10 to 100 |
| 540 | 600 nM | COc1cc(C(=O)c2c(-c3cnn(C)c3)oc3c2ccc2ocnc23)cc(OC)c1OC [Entry 33] | 100 to 1000 |
| 48 | 35 nM | COc1cc(C(=O)c2c(-c3cnn(C)c3)oc3c(OC(C)C)c(OC)ccc23)cc(OC)c1OC [Entry 13] | – |
| – | – | COc1ccc(/C=C\c2cc(OC)c(OC)c(OC)c2)cc1O [Entry 1, reference compound] | 1 to 10 |
| 3 | 3.4 nM | COc1cc(C(=O)c2c(-c3cn[nH]c3)oc3c(O)c(OC)ccc23)cc(OC)c1OC [Entry 16, [7-Hydroxy-6-methoxy-2-(1H-pyrazol-4-yl)-benzofuran-3-yl]-(3,4,5-trimethoxyphenyl)-methanone] | 1 to 10 |
| 3.8 | 4 nM | COc1ccc2c(C(=O)c3cc(OC)c(OC)c(OC)c3)c(-c3cnn(CC(N)=O)c3)oc2c1 [Entry 31, 2-{4-[6-Methoxy-3-(3,4,5-trimethoxy-benzoyl)-benzo[b]furan-2-yl]-pyrazol-1-yl}-acetamide] | 1 to 10 |
| – | – | COc1cc(C(=O)c2c(-n3ccnn3)oc3c(O)c(OC)ccc23)cc(OC)c1OC [Entry 35, 2-(1N-1,2,3-triazolyl)-7-hydroxy-3-(3,4,5-trimethoxybenzoyl)-6-methoxy-benzo[b]furan] | 1 to 10 |
| 1.4 | 2.1 nM | COc1cc(C(=O)c2c(-n3cccc3)oc3c(O)c(OC)ccc23)cc(OC)c1OC [Entry 38, 2-(1-pyrolyl)-7-hydroxy-3-(3,4,5-trimethoxybenzoyl)-6-methoxy-benzo[b]furan] | 1 to 10 |
| 0.1 to 1 | – | COc1cc(Sc2c(-c3cnn(C)c3)oc3c(N)c(OC)ccc23)cc(OC)c1OC [Entry 54, 7-Amino-6-methoxy-2-(1-methyl-1H-pyrazol-4-yl)-3-(3,4,5-trimethoxyphenylthio)benzo[b]furan] | 1 to 10 |
| – | – | COc1cc(C(=O)c2c(-c3cnn(CC(N)=O)c3)oc3c(O)c(OC)ccc23)cc(OC)c1OC [Entry 51, 2-{4-[7-Hydroxy-6-methoxy-3-(3,4,5-trimethoxybenzoyl)-benzofuran-2-yl]-pyrazol-1-yl}-acetamide] | 0.1 to 1 |

| Compound | IC50 (MCF-7, cancer cell line; [2]) [nM] | IC50 (MCF-7, cancer cell line; [3]) | IC50 [1] [nM] |
| --- | --- | --- | --- |
| COc1ccc2c(C(=O)c3cc(OC)c(OC)c(OC)c3)c(-c3cnn(C)c3)[nH]c2c1 [Entry 19, [6-Methoxy-2-(1-methyl-1H-pyrazol-4-yl)-1H-indol-3-yl]-(3,4,5-trimethoxyphenyl)-methanone] | 12 | – | 10 to 100 |
| COc1cc(C(=O)c2c(-c3nn[nH]n3)oc3c(O)c(OC)ccc23)cc(OC)c1OC [Entry 57, 7-Hydoxy-6-methoxy-2-(2H-tetrazol-5-yl)-3-(3,4,5-trimethoxybenzoyl)-benzo[b]furan] | 10 to 100 | – | 10 to 100 |
| COc1ccc(-c2oc3c(OP(=O)(O)O)c(OC)ccc3c2C(=O)c2cc(OC)c(OC)c(OC)c2)cc1 [Entry 8, reference compound] | 3.6 | 4.2 nM and 6 nM and 4.7 nM | – |
| COc1ccc2c(C(=O)c3cc(OC)c(OC)c(OC)c3)c(-c3ccsc3)oc2c1 [Entry 18, 2-(3-Thiophenyl)-3-(3,4,5-trimethoxybenzoyl)-6-methoxy-benzo[b]furan] | 17 | 22 nM | 10 to 100 |
| COc1cc(C(=O)c2c(-n3cncn3)oc3c(O)c(OC)ccc23)cc(OC)c1OC [Entry 43, 2-(1,2,4-triazol-1-yl)-7-hydroxy-3-(3,4,5-trimethoxybenzoyl)-6-methoxy-benzo[b]furan] | 0.37 | 0.32 nM | 0.1 to 1 |
| COc1cc(C(=O)c2c(-c3cnn(Cc4ccccc4)c3)oc3c(O)c(OC)ccc23)cc(OC)c1OC [Entry 15] | 4.1 | 3.3 nM | – |
| COc1cc(C(=O)c2coc3c(OP(=O)(O)O)c(OC)ccc23)cc(OC)c1OC [Entry 9, reference compound] | 41 | 82 nM | – |
| COc1cc(C(=O)c2c(-c3cnn(CC(C)C)c3)oc3c(O)c(OC)ccc23)cc(OC)c1OC [Entry 26, 2-(4-N-isobutyl-pyrazolyl)-7-hydroxy-3-(3,4,5-trimethoxy-benzoyl)-6-methoxy-benzo[b]furan] | 21 | 14 nM | 1 to 10 |
| COc1cc(C(=O)c2c(-c3nccs3)oc3c(OP(=O)(O)O)c(OC)ccc23)cc(OC)c1OC [Entry 48, 2-(2-Thiazolyl)-7-O-disodiumphosphate-6-methoxy-3-(3,4,5-trimethoxybenzoyl)-benzo[b]furan] | 0.53 | 0.4 nM | – |
| COc1ccc2c(/C(=N/Nc3ccc([N+](=O)[O-])cc3[N+](=O)[O-])c3cc(OC)c(OC)c(OC)c3)c(-c3cnn(C)c3)oc2c1 [Entry 56, (E/Z)-6-Methoxy-2-(1-methyl-1H-pyrazol-4-yl)-3-(3,4,5-trimethoxybenzoyl)benzo[b]furan 2,4-dinitrophenylhydrazone] | > 1000 | – | 100 to 1000 |
| COc1cc(C(=O)c2c(-c3c[nH]nn3)oc3c(O)c(OC)ccc23)cc(OC)c1OC [Entry 58, 17-Hydroxy-6-methoxy-2-(2H-[1,2,3]triazol-4-yl)-3-(3,4,5-trimethoxybenzoyl)benzo[b]furan] | 1 to 10 | – | 1 to 10 |
| COc1ccc2c(C(=O)c3cc(OC)c(OC)c(OC)c3)c(-c3ccco3)oc2c1 [Entry 52, 2-(2-Furyl)-6-methoxy-3-(3,4,5-trimethoxybenzoyl)benzo[b]furan] | 6.9 | 7.9 nM | 1 to 10 |
| COc1cc(C(=O)c2c(-c3cnn(C)c3)oc3c(F)c(OC)ccc23)cc(OC)c1OC [Entry 41] | 4.2 | 3.6 nM | 1 to 10 |
| COc1cc(C(=O)c2c(-c3ccco3)oc3c(OP(=O)(O)O)c(OC)ccc23)cc(OC)c1OC [Entry 47, 7-(O-disodiumphosphate)-2-(2-furyl)-6-methoxy-3-(3,4,5-trimethoxybenzoyl)benzo-[b]furan] | 0.26 | 0.31 nM | – |
